# Data reported in US20250134842A1, “FATTY ACID MIMETICS AS MODULATORS OF NUCLEAR RECEPTOR TLX (NR2E1)” (Trustees of Dartmouth College, priority 2023, published 2025).
# Target: nuclear receptor TLX (NR2E1) ligand-binding domain (Homo sapiens (Human), UniProt Q9Y466)
# Assay: AlphaScreen assay detecting TLX-RIP140 NR box peptide interaction
# Type: biochemical
# Details: for EC50 / Efficacy (fold increase): his-tagged TLX LBD, biotinylated RIP140-L6 peptide recruitment; for Emax: read-out: Relative efficacy (%)
# Protocol: In these experiments, compounds from Example 1 were evaluated in a biochemical assay to characterize ligand binding to TLX by detecting alterations in the ability of the TLX ligand binding domain to recruit an NR box peptide derived from the nuclear receptor-interacting protein 1 (NRIP1; receptor-interacting protein 140 (RIP140) transcriptional cofactor. RIP140 has been previously identified as a TLX interacting protein (Corso-Diaz X, et al. (2016) Co-activator candidate interactions for orphan nuclear receptor NR2E1. BMC Genomics 17:832).
# AlphaScreen (Perkin Elmer, Shelton, CT) technology was used to detect the TLX-RIP140 NR box peptide interaction. The AlphaScreen assay was performed as previously described using other nuclear receptors including ROR, FXR, LXR, VDR and RXR (Bettoun D J, et al., (2003) Mol Endocrinol 17:2320-2328; Bramlett K S, et al., (2003) Journal of Pharmacology and Experimental Therapeutics 307:291-296; Houck K A, at al., (2004) Mol Genet Metab 83:184-187; Kumar N, et al., (2010) Mol Pharmacol 77:228-236; and Wang Y, et al., (2010) ACS Chemical Biology: 1029-1034. The present experiments used the N-terminal his-tagged ligand-binding domain (LBD) of TLX (NovAliX SAS, Strasbourg, France) and an N-terminal biotinylated RIP140-L6 peptide with a N-terminal KGG linker, namely ([…] (aa484-513)).
# Sequence of nuclear receptor TLX (NR2E1) ligand-binding domain (Q9Y466 155-383): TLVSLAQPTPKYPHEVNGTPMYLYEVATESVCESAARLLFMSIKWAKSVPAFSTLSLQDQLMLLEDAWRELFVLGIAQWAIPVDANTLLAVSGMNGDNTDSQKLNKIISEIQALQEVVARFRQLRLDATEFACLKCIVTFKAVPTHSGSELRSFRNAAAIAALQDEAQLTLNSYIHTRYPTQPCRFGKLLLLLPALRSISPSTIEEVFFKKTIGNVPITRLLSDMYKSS
SMILES,EC50,Efficacy (fold increase),Emax (relative to oleic acid = 100.0),Relative efficacy (%) (relative to oleic acid = 100.0)
CCCCCCCCCC/C=C(/C)C/C(C)=C/[C@H](C)CC(=O)O [Compound 1-A],2.2 µM,6.1 fold,72.6%,
CCCCCCCCCC/C=C(/C)C/C(C)=C/[C@@H](C)CC(=O)O [Compound 1-B],2.4 µM,6.5 fold,77.4%,
CCCCCCCCC[C@@H](C)/C=C(/C)C/C(C)=C/[C@H](C)CC(=O)O [Compound 1-C],3.1 µM,6.8 fold,81%,
CCCCCCCCC[C@@H](C)/C=C(/C)C/C(C)=C/[C@@H](C)CC(=O)O [Compound 1-D],3.2 µM,7.1 fold,84.5%,
CCCCCCCCC[C@H](C)/C=C(/C)C/C(C)=C/[C@H](C)CC(=O)O [Compound 1-E],1.7 µM,6.2 fold,73.8%,
CCCCCCCCC[C@H](C)/C=C(/C)C/C(C)=C/[C@@H](C)CC(=O)O [Compound 1-F],1.9 µM,7.2 fold,85.7%,
CCCCCCCC/C=C(/C)C/C(C)=C/[C@H](C)CCCC(=O)O [Compound 2-A],2.5 µM,6.6 fold,78.6%,
CCCCCCCC/C=C(/C)C/C(C)=C/[C@@H](C)CCCC(=O)O [Compound 2-B],3.1 µM,6.6 fold,78.6%,
CCCCCCC[C@H](C)/C=C(/C)C/C(C)=C/[C@@H](C)CCCC(=O)O [Compound 2-F],1.6 µM,6.1 fold,72.6%,
CCCCCC/C=C(/C)C/C(C)=C/[C@H](C)CCCCCC(=O)O [Compound 3-A],1.6 µM,6.5 fold,77.4%,
CCCC/C=C(/C)C/C(C)=C/[C@@H](C)CCCCCCCC(=O)O [Compound 4-B],3 µM,7.1 fold,84.5%,
CCC[C@@H](C)/C=C(/C)C/C(C)=C/[C@@H](C)CCCCCCCC(=O)O [Compound 4-D],1.6 µM,6.2 fold,73.8%,
CCC[C@H](C)/C=C(/C)C/C(C)=C/[C@@H](C)CCCCCCCC(=O)O [Compound 4-F],1.9 µM,6.0 fold,71.4%,
"CCCCCCCC/C=C\CCCCCCCC(=O)O [Oleic Acid, oleic acid, reference compound]",3.6 µM,8.4 fold,,100.0%

# Stronger by EC50, values ahead:
EC50,Efficacy (fold increase),Emax (relative to oleic acid = 100.0),SMILES,Relative efficacy (%) (relative to oleic acid = 100.0)
1.5 µM,6.6 fold,78.6%,CCCCCCC[C@@H](C)/C=C(/C)C/C(C)=C/[C@H](C)CCCC(=O)O [Compound 2-C],
1.5 µM,6.6 fold,78.6%,CCCC/C=C(/C)C/C(C)=C/[C@H](C)CCCCCCCC(=O)O [Compound 4-A],
1.5 µM,6.2 fold,73.8%,CCC[C@@H](C)/C=C(/C)C/C(C)=C/[C@H](C)CCCCCCCC(=O)O [Compound 4-C],
1.3 µM,5.8 fold,69%,CCCCCCC[C@@H](C)/C=C(/C)C/C(C)=C/[C@@H](C)CCCC(=O)O [Compound 2-D],
1.3 µM,5.8 fold,69%,CCCCCCC[C@H](C)/C=C(/C)C/C(C)=C/[C@H](C)CCCC(=O)O [Compound 2-E],
1.3 µM,5.7 fold,67.9%,CCC[C@H](C)/C=C(/C)C/C(C)=C/[C@H](C)CCCCCCCC(=O)O [Compound 4-E],
1.2 µM,6.1 fold,72.6%,CCCCC[C@@H](C)/C=C(/C)C/C(C)=C/[C@@H](C)CCCCCC(=O)O [Compound 3-D],
1 µM,6.3 fold,75%,CCCCC[C@H](C)/C=C(/C)C/C(C)=C/[C@H](C)CCCCCC(=O)O [Compound 3-E],
0.9 µM,6.6 fold,78.6%,CCCCCC/C=C(/C)C/C(C)=C/[C@@H](C)CCCCCC(=O)O [Compound 3-B],
0.9 µM,6.0 fold,71.4%,CCCCC[C@H](C)/C=C(/C)C/C(C)=C/[C@@H](C)CCCCCC(=O)O [Compound 3-F],
0.8 µM,5.5 fold,65.5%,CCCCC[C@@H](C)/C=C(/C)C/C(C)=C/[C@H](C)CCCCCC(=O)O [Compound 3-C],
